Reference: ChEMBL document CHEMBL1201862, “PubChem BioAssay data set” (2004)
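Protocol summary: plate cells (96-well), add compound at 5 concentrations, incubate 48 h, interpolate endpoints linearly. GI50 = concentration required for 50% inhibition of growth.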 Active and inactive are the calls of the source. Cut-off read from the data, not from the text of the source: active = GI50 up to about 1.1 µM and inactive = higher.

Experiments:
Experiment in all cases: NCI tumour cell line growth inhibition, 48 h
Hs-578T = tested on: Hs-578T
CAKI-1 = tested on: CAKI-1
SN12C = tested on: SN12C
SR = tested on: SR
U-251 = tested on: U-251
SF-539 = tested on: SF-539
HCC 2998 = tested on: HCC 2998
KM12 = tested on: KM12
HL-60 = tested on: HL-60
IGROV-1 = tested on: IGROV-1
OVCAR-3 = tested on: OVCAR-3
OVCAR-5 = tested on: OVCAR-5
M14 = tested on: M14
OVCAR-8 = tested on: OVCAR-8
HCT-116 = tested on: HCT-116
A549 = tested on: A549
HT-29 = tested on: HT-29
BT-549 = tested on: BT-549
SF-295 = tested on: SF-295
SF-268 = tested on: SF-268
786-0 = tested on: 786-0
SK-MEL-28 = tested on: SK-MEL-28
MOLT-4 = tested on: MOLT-4
SNB-19 = tested on: SNB-19
PC-3 = tested on: PC-3
HCT-15 = tested on: HCT-15
K562 = tested on: K562
MCF7 = tested on: MCF7
CCRF-CEM = tested on: CCRF-CEM
NCI-H522 = tested on: NCI-H522
UACC-62 = tested on: UACC-62
NCI-H23 = tested on: NCI-H23
RPMI-8226 = tested on: RPMI-8226
NCI-H460 = tested on: NCI-H460
UO-31 = tested on: UO-31
A498 = tested on: A498
NCI-H226 = tested on: NCI-H226
TK-10 = tested on: TK-10
DU-145 = tested on: DU-145
SNB-75 = tested on: SNB-75
RXF 393 = tested on: RXF 393
SK-MEL-2 = tested on: SK-MEL-2
NCI/ADR-RES = tested on: NCI/ADR-RES
ACHN = tested on: ACHN
SK-MEL-5 = tested on: SK-MEL-5
UACC-257 = tested on: UACC-257
HOP-62 = tested on: HOP-62
MDA-N = tested on: MDA-N
MDA-MB-231 = tested on: MDA-MB-231
Malme-3M = tested on: Malme-3M
LOX IMVI = tested on: LOX IMVI
HOP-92 = tested on: HOP-92
COLO 205 = tested on: COLO 205
OVCAR-4 = tested on: OVCAR-4
MDA-MB-435 = tested on: MDA-MB-435
EKVX = tested on: EKVX
SK-OV-3 = tested on: SK-OV-3
SW-620 = tested on: SW-620

SMILES: N#Cc1cc2c(n(C3OC(CO)C(O)C(O)C3O)c1=S)CCCCC2 (configuration not stated)
- GI50 (Hs-578T): > 100 µM (inactive)
- GI50 (CAKI-1): > 100 µM (inactive)
- GI50 (SN12C): > 100 µM (inactive)
- GI50 (SR): > 100 µM (inactive)
- GI50 (U-251): > 100 µM (inactive)
- GI50 (SF-539): > 100 µM (inactive)
- GI50 (HCC 2998): > 100 µM (inactive)
- GI50 (KM12): > 100 µM (inactive)
- GI50 (HL-60): > 100 µM (inactive)
- GI50 (IGROV-1): > 100 µM (inactive)
- GI50 (OVCAR-3): > 100 µM (inactive)
- GI50 (OVCAR-5): > 100 µM (inactive)
- GI50 (M14): > 100 µM (inactive)
- GI50 (OVCAR-8): > 100 µM (inactive)
- GI50 (HCT-116): > 100 µM (inactive)
- GI50 (A549): > 100 µM (inactive)
- GI50 (HT-29): > 100 µM (inactive)
- GI50 (BT-549): > 100 µM (inactive)
- GI50 (SF-295): > 100 µM (inactive)
- GI50 (SF-268): > 100 µM (inactive)
- GI50 (786-0): > 100 µM (inactive)
- GI50 (SK-MEL-28): > 100 µM (inactive)
- GI50 (MOLT-4): > 100 µM (inactive)
- GI50 (SNB-19): > 100 µM (inactive)
- GI50 (PC-3): > 100 µM (inactive)
- GI50 (HCT-15): > 100 µM
- GI50 (K562): > 100 µM (inactive)
- GI50 (MCF7): > 100 µM (inactive)
- GI50 (CCRF-CEM): > 100 µM (inactive)
- GI50 (NCI-H522): > 100 µM (inactive)
- GI50 (UACC-62): > 100 µM (inactive)
- GI50 (NCI-H23): > 100 µM (inactive)
- GI50 (RPMI-8226): > 100 µM (inactive)
- GI50 (NCI-H460): > 100 µM (inactive)
- GI50 (UO-31): > 100 µM (inactive)
- GI50 (A498): > 100 µM (inactive)
- GI50 (NCI-H226): > 100 µM (inactive)
- GI50 (TK-10): > 100 µM (inactive)
- GI50 (DU-145): > 100 µM (inactive)
- GI50 (SNB-75): > 100 µM (inactive)
- GI50 (RXF 393): > 100 µM (inactive)
- GI50 (SK-MEL-2): > 100 µM (inactive)
- GI50 (NCI/ADR-RES): > 100 µM (inactive)
- GI50 (ACHN): > 100 µM (inactive)
- GI50 (SK-MEL-5): > 100 µM (inactive)
- GI50 (UACC-257): > 100 µM (inactive)
- GI50 (HOP-62): > 100 µM (inactive)
- GI50 (MDA-N): > 100 µM (inactive)
- GI50 (MDA-MB-231): > 100 µM (inactive)
- GI50 (Malme-3M): > 100 µM (inactive)
- GI50 (LOX IMVI): > 100 µM (inactive)
- GI50 (HOP-92): > 100 µM (inactive)
- GI50 (COLO 205): > 100 µM (inactive)
- GI50 (OVCAR-4): > 100 µM (inactive)
- GI50 (MDA-MB-435): > 100 µM (inactive)

SMILES: CCCCCCOc1ccc(C(=O)NOC)cc1
- GI50 (Hs-578T): > 100 µM (inactive)
- GI50 (CAKI-1): 96.8 µM (inactive)
- GI50 (SN12C): > 100 µM (inactive)
- GI50 (SR): 62.5 µM (inactive)
- GI50 (U-251): > 100 µM (inactive)
- GI50 (SF-539): > 100 µM (inactive)
- GI50 (HCC 2998): > 100 µM (inactive)
- GI50 (KM12): > 100 µM (inactive)
- GI50 (HL-60): 26.9 µM (inactive)
- GI50 (IGROV-1): > 100 µM (inactive)
- GI50 (OVCAR-3): > 100 µM (inactive)
- GI50 (OVCAR-5): > 100 µM (inactive)
- GI50 (M14): > 100 µM (inactive)
- GI50 (OVCAR-8): > 100 µM (inactive)
- GI50 (HCT-116): > 100 µM (inactive)
- GI50 (A549): 66.7 µM (inactive)
- GI50 (HT-29): > 100 µM (inactive)
- GI50 (BT-549): 82.8 µM (inactive)
- GI50 (SF-295): > 100 µM (inactive)
- GI50 (SF-268): > 100 µM (inactive)
- GI50 (786-0): > 100 µM (inactive)
- GI50 (SK-MEL-28): > 100 µM (inactive)
- GI50 (MOLT-4): 24.8 µM (inactive)
- GI50 (SNB-19): > 100 µM (inactive)
- GI50 (PC-3): 60.1 µM (inactive)
- GI50 (HCT-15): > 100 µM
- GI50 (K562): 40.4 µM (inactive)
- GI50 (MCF7): > 100 µM (inactive)
- GI50 (CCRF-CEM): > 100 µM (inactive)
- GI50 (NCI-H522): > 100 µM (inactive)
- GI50 (EKVX): > 100 µM (inactive)
- GI50 (UACC-62): > 100 µM (inactive)
- GI50 (NCI-H23): > 100 µM (inactive)
- GI50 (RPMI-8226): 36 µM (inactive)
- GI50 (NCI-H460): > 100 µM (inactive)
- GI50 (UO-31): 30.3 µM (inactive)
- GI50 (SK-OV-3): > 100 µM (inactive)
- GI50 (A498): 99.1 µM (inactive)
- GI50 (NCI-H226): > 100 µM (inactive)
- GI50 (TK-10): > 100 µM (inactive)
- GI50 (DU-145): > 100 µM (inactive)
- GI50 (SNB-75): > 100 µM (inactive)
- GI50 (RXF 393): > 100 µM (inactive)
- GI50 (SK-MEL-2): > 100 µM (inactive)
- GI50 (NCI/ADR-RES): > 100 µM (inactive)
- GI50 (ACHN): > 100 µM (inactive)
- GI50 (SK-MEL-5): > 100 µM (inactive)
- GI50 (UACC-257): > 100 µM (inactive)
- GI50 (HOP-62): > 100 µM (inactive)
- GI50 (SW-620): > 100 µM (inactive)
- GI50 (MDA-N): > 100 µM (inactive)
- GI50 (MDA-MB-231): 80.5 µM (inactive)
- GI50 (LOX IMVI): > 100 µM (inactive)
- GI50 (HOP-92): > 100 µM (inactive)
- GI50 (COLO 205): > 100 µM (inactive)
- GI50 (OVCAR-4): > 100 µM (inactive)
- GI50 (MDA-MB-435): > 100 µM (inactive)
